The supplement of paper PMC10307832

Legend:
Test in all cases: relative viability (nuclei count vs DMSO), 5 days (fraction); higher = more cells survive
Sorafenib + Luminespib = compound: CNC(=O)c1cc(Oc2ccc(NC(=O)Nc3ccc(Cl)c(C(F)(F)F)c3)cc2)ccn1 [Sorafenib] + CCNC(=O)c1noc(-c2cc(C(C)C)c(O)cc2O)c1-c1ccc(CN2CCOCC2)cc1 [Luminespib] (partner 0.01 µM)
Summary of the method: (§1)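 Dosing by pin tool came one day after lung cancer cell lines were seeded in 1536-well plates, using either one drug or a fixed anchor-drug dose plus five library-drug doses (not always all listed) in √10 steps. After 5 days, nuclei were counted on 4× images. Relative viability is treated-well nuclei count divided by vehicle-well nuclei count, and values are medians of duplicate plates.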

Sorafenib + OSI-027 = compound: CNC(=O)c1cc(Oc2ccc(NC(=O)Nc3ccc(Cl)c(C(F)(F)F)c3)cc2)ccn1 [Sorafenib] + COc1cccc2cc(-c3nc([C@H]4CC[C@H](C(=O)O)CC4)n4ncnc(N)c34)[nH]c12 [OSI-027] (partner 0.5 µM)
Summary of the method: as §1

Sorafenib + Pictilisib = compound: CNC(=O)c1cc(Oc2ccc(NC(=O)Nc3ccc(Cl)c(C(F)(F)F)c3)cc2)ccn1 [Sorafenib] + CS(=O)(=O)N1CCN(Cc2cc3nc(-c4cccc5[nH]ncc45)nc(N4CCOCC4)c3s2)CC1 [Pictilisib] (partner 1 µM)
Summary of the method: as §1

Sorafenib + Phenformin = compound: CNC(=O)c1cc(Oc2ccc(NC(=O)Nc3ccc(Cl)c(C(F)(F)F)c3)cc2)ccn1 [Sorafenib] + N=C(N)NC(=N)NCCc1ccccc1 [Phenformin] (partner 250 µM)
Summary of the method: as §1

Sorafenib + Olaparib = compound: CNC(=O)c1cc(Oc2ccc(NC(=O)Nc3ccc(Cl)c(C(F)(F)F)c3)cc2)ccn1 [Sorafenib] + O=C(c1cc(Cc2n[nH]c(=O)c3ccccc23)ccc1F)N1CCN(C(=O)C2CC2)CC1 [Olaparib] (partner 8 µM)
Summary of the method: as §1

Cell Line | relative viability (Sorafenib + Luminespib; first compound 0.08 µM) | relative viability (Sorafenib + Luminespib; first compound 0.253 µM) | relative viability (Sorafenib + Luminespib; first compound 2.53 µM) | relative viability (Sorafenib + Luminespib; first compound 8 µM) | relative viability (Sorafenib + OSI-027; first compound 0.08 µM) | relative viability (Sorafenib + OSI-027; first compound 0.253 µM) | relative viability (Sorafenib + OSI-027; first compound 2.53 µM) | relative viability (Sorafenib + OSI-027; first compound 8 µM) | relative viability (Sorafenib + Pictilisib; first compound 0.08 µM) | relative viability (Sorafenib + Pictilisib; first compound 0.253 µM) | relative viability (Sorafenib + Pictilisib; first compound 2.53 µM) | relative viability (Sorafenib + Pictilisib; first compound 8 µM) | relative viability (Sorafenib + Phenformin; first compound 0.08 µM) | relative viability (Sorafenib + Phenformin; first compound 0.253 µM) | relative viability (Sorafenib + Phenformin; first compound 2.53 µM) | relative viability (Sorafenib + Phenformin; first compound 8 µM) | relative viability (Sorafenib + Olaparib; first compound 0.08 µM) | relative viability (Sorafenib + Olaparib; first compound 0.253 µM) | relative viability (Sorafenib + Olaparib; first compound 2.53 µM) | relative viability (Sorafenib + Olaparib; first compound 8 µM)
NCI-H1792 | 0.438 | 0.358 | 0.534 | 0.353 | 0.811 | 0.697 | 0.695 | 0.394 | 0.34 | 0.23 | 0.278 | 0.39 | 0.199 | 0.309 | 0.234 | 0.181 | 0.645 | 0.416 | 0.347 | 0.179
NCI-H1793 | 0.23 | 0.207 | 0.199 | 0.187 | 0.29 | 0.303 | 0.299 | 0.162 | 0.313 | 0.333 | 0.256 | 0.195 | 0.453 | 0.329 | 0.418 | 0.293 | 1.05 | 0.836 | 0.84 | 0.661
NCI-H1915 | 0.848 | 0.678 |  | 0.751 | 0.659 | 0.558 | 0.682 | 0.512 | 0.875 | 0.911 | 0.958 | 0.866 | 0.357 | 0.33 | 0.359 | 0.341 | 0.283 | 0.226 | 0.266 | 0.271
NCI-H1944 | 0.697 | 0.634 |  | 0.552 | 0.4 | 0.381 | 0.436 | 0.334 | 0.368 | 0.332 | 0.365 | 0.274 | 0.207 | 0.188 | 0.21 | 0.144 | 0.391 | 0.379 | 0.382 | 0.35
NCI-H1975 | 0.426 | 0.201 | 0.24 | 0.153 | 0.812 | 0.55 | 0.695 | 0.375 | 0.312 | 0.308 | 0.376 | 0.286 | 0.462 | 0.403 | 0.429 | 0.341 | 0.936 | 0.779 | 0.669 | 0.353
NCI-H1993 | 0.921 | 0.489 | 0.999 | 0.543 | 0.477 | 0.517 | 0.504 | 0.435 | 0.833 | 0.788 | 0.707 | 0.677 | 0.516 | 0.51 | 0.499 | 0.499 | 1.12 | 1.2 | 1.22 | 0.751
NCI-H2009 | 1.03 | 0.868 | 0.915 | 0.476 | 0.629 | 0.355 | 0.601 | 0.303 | 0.866 | 0.621 | 0.752 | 0.265 | 0.47 | 0.365 | 0.433 | 0.157 | 0.621 | 0.533 | 0.524 | 0.556
NCI-H2023 | 0.828 | 0.761 | 0.826 | 0.136 | 0.51 | 0.338 | 0.387 | 0.19 | 0.301 | 0.269 | 0.263 | 0.181 | 0.51 | 0.395 | 0.374 | 0.174 | 0.45 | 0.477 | 0.465 | 0.115
NCI-H2085 | 0.483 | 0.414 | 0.424 | 0.448 | 0.934 | 0.544 | 0.704 | 0.396 | 0.541 | 0.444 | 0.549 | 0.481 |  | 0.623 | 0.756 | 0.48 | 0.763 | 0.851 | 1.01 | 0.761
NCI-H2087 | 0.192 | 0.183 | 0.236 | 0.123 | 0.658 | 0.556 | 0.455 | 0.3 | 1.02 | 0.787 | 0.609 | 0.349 | 0.467 | 0.403 | 0.389 | 0.14 | 0.717 | 0.566 | 0.501 | 0.116
NCI-H2126 | 0.981 |  | 0.882 | 0.864 | 0.824 | 0.665 | 0.712 | 0.703 | 0.498 | 0.505 | 0.618 | 0.54 | 0.539 | 0.529 | 0.603 | 0.501 | 0.935 | 0.851 | 0.96 | 0.913
NCI-H2170 | 0.527 | 0.707 | 0.706 | 0.592 | 0.72 | 0.681 | 0.647 | 0.51 | 0.323 | 0.348 | 0.369 | 0.255 | 0.403 | 0.437 | 0.43 | 0.361 | 0.63 | 0.577 | 0.556 | 0.365
NCI-H2228 | 0.181 | 0.178 | 0.154 | 0.105 | 0.626 | 0.607 |  | 0.365 | 0.384 | 0.375 | 0.337 | 0.529 | 0.362 | 0.285 | 0.259 | 0.133 | 0.868 | 0.46 | 0.532 | 0.294
NCI-H2347 | 0.625 | 0.433 | 0.763 | 0.62 | 0.48 | 0.378 | 0.458 | 0.391 | 0.956 | 0.479 | 0.641 | 0.493 | 0.519 | 0.398 | 0.351 | 0.326 | 0.675 | 0.502 | 0.503 | 0.519
NCI-H2405 | 0.868 | 0.705 | 0.79 | 0.446 | 0.679 | 0.662 | 0.731 | 0.546 | 0.539 | 0.39 | 0.363 | 0.293 | 0.421 | 0.334 | 0.405 | 0.259 | 0.891 | 0.852 | 0.887 | 0.807
NCI-H3122 | 0.11 | 0.105 | 0.0728 | 0.044 | 0.99 | 0.898 | 0.805 | 0.378 | 0.762 | 0.671 | 0.604 | 0.234 | 0.39 | 0.326 | 0.346 | 0.212 | 0.639 | 0.611 | 0.6 | 0.53
